Assays:
PD patients with LIDS = details: patients with idiopathic PD and LIDS, one oral dosage per day, 4 mg/day escalated to 24 mg/day
Text: Patients with idiopathic PD and LIDS are enrolled in a clinical study. […] The patient population in this study is typical of those patients with LIDS. Upon randomization of patients for receiving study agent or placebo, there are no statistically significant differences in baseline parameters between the 2 groups.
The study consists of 3 phases: a treatment period, a drug taper period, and a follow-up period. Subjects are randomly assigned to receive either a nicotine salt or placebo (pbo). Treatment is with one oral dosage per day containing a nicotine salt or placebo. […]
Safety is assessed by incidences of adverse experiences (AE), clinical laboratory tests, serum cotinine, ECG and vital signs. Impulsive symptoms are assessed using the Jay Modified Minnesota Impulsive Disorders Interview (JayMidi). Withdrawal symptoms are evaluated using the Minnesota Nicotine Withdrawal Scale (MNWS-R).
Efficacy is assessed using the UPDRS (total of Parts II+III+IV), sum of Q32+Q33, Unified Dyskiensia Rating Scale (UDysRS) total scores and subscores, Lang-Fahn Dyskinesia Acitivties of Daily Living Scale (LF-ADL), CGI-C and PGI-C scales, and responder analyses (subjects with >25% improvement from baseline) on UDysRS total score and LF-ADL, and % subjects with any improvement on PGI-C and CGI-C. […]

[1] = cited from earlier work

SMILES	adverse experiences (AE) (PD patients with LIDS)	improvement on patient- and physician-rated outcome measures (UPDRS, UDysRS, LF-ADL, CGI-C, PGI-C) compared to pbo (PD patients with LIDS; majority of outcome measures)	solubility in water [1]
CN1CCC[C@H]1c1cccnc1 [nicotine, 3-[(2S)-1-methylpyrrolidin-2-yl]pyridine]	no unexpected AEs occur	trend towards statistically significant improvement	
N[C@@H](Cc1ccc(O)c(O)c1)C(=O)O [Levodopa, L-3,4-dihydroxyphenylalanine (S)-2-amino-3-(3,4-dihydroxyphenyl)propanoic acid]			slightly soluble

Source: patent US20180015080A1, “COMPOSITIONS AND METHODS FOR TREATMENT IN PARKINSON'S DISEASE PATIENTS” (priority 2013, published 2018)
